From patent US9328106B2, “Cyclic ether pyrazol-4-yl-heterocyclyl-carboxamide compounds and methods of use” (Genentech, Inc., priority 2012, dated 2016)

Molecular target: PIM1 (Homo sapiens (Human), UniProt P11309)
Assay: biochemical
Format: biochemical
Conditions: 20 pM PIM1, 1 μM FAM-peptide, 10 μM ATP, 90 minutes at room temperature; read-out: PIM1 LC3K (KI)

Chain of PIM1 (P11309 whole entry): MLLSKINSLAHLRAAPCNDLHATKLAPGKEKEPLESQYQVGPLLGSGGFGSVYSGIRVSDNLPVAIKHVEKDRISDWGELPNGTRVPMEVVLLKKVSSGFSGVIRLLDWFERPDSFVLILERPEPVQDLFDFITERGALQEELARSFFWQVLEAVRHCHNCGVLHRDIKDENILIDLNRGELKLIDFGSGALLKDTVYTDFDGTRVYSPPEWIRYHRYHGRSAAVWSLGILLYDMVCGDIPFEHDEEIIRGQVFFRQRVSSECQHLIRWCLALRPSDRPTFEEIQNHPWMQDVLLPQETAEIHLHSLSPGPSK

SMILES	Ki [nM]
Cn1ncc(NC(=O)c2ccc(F)c(-c3c(F)cc(C(C)(C)O)cc3F)n2)c1[C@@H]1CC[C@@H](N)[C@H](F)CO1 [Example 200, N-(5-((2S,5R,6S)-5-amino-6-fluorooxepan-2-yl)-1-methyl-1H-pyrazol-4-yl)-6-(2,6-difluoro-4-(2-hydroxypropan-2-yl)phenyl)-5-fluoropicolinamide]	0.011
Cn1ncc(NC(=O)c2nc(-c3c(F)cccc3F)sc2N)c1[C@H]1CC[C@H](CN)O1 [Example 171, 5-Amino-N-[5-[(2R,5R)-5-(aminomethyl)tetrahydrofuran-2-yl]-1-methyl-pyrazol-4-yl]-2-(2,6-difluorophenyl)thiazole-4-carboxamide]	0.027
Cn1ncc(NC(=O)c2nc(-c3c(F)cccc3F)sc2N)c1[C@H]1CC[C@H](F)[C@@H](N)CO1 [Example 153, 5-Amino-N-[5-[(2R,5S,6S)-6-amino-5-fluoro-oxepan-2-yl]-1-methyl-pyrazol-4-yl]-2-(2,6-difluorophenyl)thiazole-4-carboxamide]	0.114
Cn1ncc(NC(=O)c2nc(-c3c(F)cccc3F)sc2N)c1[C@@H]1C[C@@H](N)[C@@H](F)CCO1 (stereo in doubt) [Example 170, 5-Amino-N-[5-[4-amino-5-fluoro-oxepan-2-yl]-1-methyl-pyrazol-4-yl]-2-(2,6-difluorophenyl)thiazole-4-carboxamide]	0.126
COc1cc(F)c(-c2nc(C(=O)Nc3cnn(C)c3[C@@H]3CC[C@@H](N)[C@H](F)CO3)cs2)c(F)c1 [Example 296, N-(5-((2S,5R,6S)-5-amino-6-fluorooxepan-2-yl)-1-methyl-1H-pyrazol-4-yl)-2-(2,6-difluoro-4-methoxyphenyl)thiazole-4-carboxamide]	0.031
Cc1cccc(F)c1-c1nc(C(=O)Nc2cnn(C)c2[C@@H]2CC[C@@H](N)[C@@H](F)CO2)c(N)s1 [Example 273, 5-amino-N-(5-((2S,5R,6R)-5-amino-6-fluorooxepan-2-yl)-1-methyl-1H-pyrazol-4-yl)-2-(2-fluoro-6-methylphenyl)thiazole-4-carboxamide]	0.007
Cn1ncc(NC(=O)c2csc(-c3cc(Br)ccc3F)n2)c1[C@@H]1CC[C@@H](N)[C@H](F)CO1 [Example 299, N-(5-((2S,5R,6S)-5-amino-6-fluorooxepan-2-yl)-1-methyl-1H-pyrazol-4-yl)-2-(5-bromo-2-fluorophenyl)thiazole-4-carboxamide]	0.023
Cn1ncc(NC(=O)c2nc(-c3c(F)cccc3F)sc2N)c1C1OCC(CO)CO1 (centres unmarked) [Example 164, 5-Amino-2-(2,6-difluorophenyl)-N-[5-[5-(hydroxymethyl)-1,3-dioxan-2-yl]-1-methyl-pyrazol-4-yl]thiazole-4-carboxamide]	0.105
Cn1ncc(NC(=O)c2csc(-c3ccncc3F)n2)c1[C@@H]1CC[C@@H](N)[C@H](F)CO1 [Example 300, N-(5-((2S,5R,6S)-5-amino-6-fluorooxepan-2-yl)-1-methyl-1H-pyrazol-4-yl)-2-(3-fluoropyridin-4-yl)thiazole-4-carboxamide]	0.134
C[C@@H](O)c1cc(F)c(-c2nc(C(=O)Nc3cnn(C)c3[C@@H]3CC[C@@H](N)[C@H](F)CO3)cs2)c(F)c1 [Example 304, N-(5-((2S,5R,6S)-5-amino-6-fluorooxepan-2-yl)-1-methyl-1H-pyrazol-4-yl)-2-(2,6-difluoro-4-((R)-1-hydroxyethyl)phenyl)thiazole-4-carboxamide]	0.014
Cn1ncc(NC(=O)c2ccc(F)c(-c3cccc(F)c3F)n2)c1[C@@H]1CC[C@@H](N)[C@H](F)CO1 [Example 223, N-(5-((2S,5R,6S)-5-amino-6-fluorooxepan-2-yl)-1-methyl-1H-pyrazol-4-yl)-6-(2,3-difluorophenyl)-5-fluoropicolinamide]	0.083
Cn1ncc(NC(=O)c2ccc(F)c(-c3c(F)cc(C(C)(C)O)cc3F)n2)c1[C@@H]1CC[C@@H](N)[C@@H](F)CO1 [Example 289, N-(5-((2S,5R,6R)-5-amino-6-fluorooxepan-2-yl)-1-methyl-1H-pyrazol-4-yl)-6-(2,6-difluoro-4-(2-hydroxypropan-2-yl)phenyl)-5-fluoropicolinamide]	0.08
Cc1cccc(F)c1-c1nc(C(=O)Nc2cnn(C)c2[C@@H]2CC[C@@H](N)[C@H](F)CO2)c(C)s1 [Example 369, N-[5-[(2S,5R,6S)-5-amino-6-fluoro-oxepan-2-yl]-1-methyl-pyrazol-4-yl]-2-(2-fluoro-6-methyl-phenyl)-5-methyl-thiazole-4-carboxamide]	3.59
COC1(c2cc(F)c(-c3nc(C(=O)Nc4cnn(C)c4[C@@H]4CC[C@@H](N)[C@@H](F)CO4)ccc3F)c(F)c2)COC1 [Example 203, N-(5-((2S,5R,6R)-5-amino-6-fluorooxepan-2-yl)-1-methyl-1H-pyrazol-4-yl)-6-(2,6-difluoro-4-(3-methoxyoxetan-3-yl)phenyl)-5-fluoropicolinamide]	0.119
Cn1cc(-c2nc(C(=O)Nc3cnn(C)c3[C@@H]3CC[C@@H](N)[C@@H](F)CO3)cs2)c(C2CC2)n1 [Example 253, N-(5-((2S,5R,6R)-5-amino-6-fluorooxepan-2-yl)-1-methyl-1H-pyrazol-4-yl)-2-(3-cyclopropyl-1-methyl-1H-pyrazol-4-yl)thiazole-4-carboxamide]	0.253
CO[C@H]1CO[C@H](c2c(NC(=O)c3nc(-c4ccccc4C(F)(F)F)sc3N)cnn2C)CC[C@H]1N [Example 220, 5-amino-N-(5-((2S,5R,6R)-5-amino-6-methoxyoxepan-2-yl)-1-methyl-1H-pyrazol-4-yl)-2-(2-(trifluoromethyl)phenyl)thiazole-4-carboxamide]	0.083
Cn1ncc(NC(=O)c2csc(-c3cnn(C4CC4)c3)n2)c1[C@@H]1CC[C@@H](N)[C@H](F)CO1 [Example 235, N-(5-((2S,5R,6S)-5-amino-6-fluorooxepan-2-yl)-1-methyl-1H-pyrazol-4-yl)-2-(1-cyclopropyl-1H-pyrazol-4-yl)thiazole-4-carboxamide]	0.068
Cn1ncc(NC(=O)c2nc(-c3c(F)cccc3F)sc2N)c1C1CCCCO1 (centres unmarked) [Example 104, 5-amino-2-(2,6-difluorophenyl)-N-(1-methyl-5-tetrahydropyran-2-yl-pyrazol-4-yl)thiazole-4-carboxamide]	0.424
C[C@@H]1CC(N)CC[C@H](c2c(NC(=O)c3nc(-c4c(F)cccc4F)sc3N)cnn2C)O1 (stereo partly drawn) [Example 113, 5-amino-N-(5-((2R,7R)-5-amino-7-methyloxepan-2-yl)-1-methyl-1H-pyrazol-4-yl)-2-(2,6-difluorophenyl)thiazole-4-carboxamide]	0.019
Cn1ncc(NC(=O)c2csc(-c3cccc(Cl)c3F)n2)c1[C@@H]1CC[C@@H](N)[C@@H](F)CO1 [Example 248, N-(5-((2S,5R,6R)-5-amino-6-fluorooxepan-2-yl)-1-methyl-1H-pyrazol-4-yl)-2-(3-chloro-2-fluorophenyl)thiazole-4-carboxamide]	0.064
COC(c1cc(F)c(-c2nc(C(=O)Nc3cnn(C)c3[C@@H]3CC[C@@H](N)[C@H](F)CO3)ccc2F)c(F)c1)C1CC1 (stereo partly drawn) [Example 213, N-(5-((2S,5R,6S)-5-amino-6-fluorooxepan-2-yl)-1-methyl-1H-pyrazol-4-yl)-6-(4-(cyclopropyl(methoxy)methyl)-2,6-difluorophenyl)-5-fluoropicolinamide]	0.078
Cn1ncc(NC(=O)c2nc(-c3c(F)ccc(F)c3F)sc2N)c1[C@@H]1CC[C@@H](N)[C@@H](F)CO1 [Example 260, 5-amino-N-(5-((2S,5R,6R)-5-amino-6-fluorooxepan-2-yl)-1-methyl-1H-pyrazol-4-yl)-2-(2,3,6-trifluorophenyl)thiazole-4-carboxamide]	0.004
COc1cc(F)c(-c2nc(C(=O)Nc3cnn(C)c3[C@@H]3CC[C@@H](N)[C@@H](F)CO3)cs2)c(F)c1 [Example 288, N-(5-((2S,5R,6R)-5-amino-6-fluorooxepan-2-yl)-1-methyl-1H-pyrazol-4-yl)-2-(2,6-difluoro-4-methoxyphenyl)thiazole-4-carboxamide]	0.035
Cn1ncc(NC(=O)c2nc(-c3ccccc3C(F)F)sc2N)c1[C@@H]1CC[C@@H](N)[C@H](F)CO1 [Example 335, 5-amino-N-(5-((2S,5R,6S)-5-amino-6-fluorooxepan-2-yl)-1-methyl-1H-pyrazol-4-yl)-2-(2-(difluoromethyl)phenyl)thiazole-4-carboxamide]	0.092
Cn1ncc(NC(=O)c2csc(-n3ncc4ccccc43)n2)c1[C@@H]1CC[C@@H](N)[C@H](F)CO1 [Example 395, N-(5-((2S,5R,6S)-5-amino-6-fluorooxepan-2-yl)-1-methyl-1H-pyrazol-4-yl)-2-(1H-indazol-1-yl)thiazole-4-carboxamide]	0.085
Cn1ncc(NC(=O)c2csc(-c3c(F)cc(C(C)(F)F)cc3F)n2)c1[C@@H]1CC[C@@H](N)[C@H](F)CO1 [Example 394, N-(5-((2S,5R,6S)-5-amino-6-fluorooxepan-2-yl)-1-methyl-1H-pyrazol-4-yl)-2-(4-(1,1-difluoroethyl)-2,6-difluorophenyl)thiazole-4-carboxamide]	0.018
CO[C@H]1CO[C@H](c2c(NC(=O)c3nc(-c4c(C)cccc4F)sc3N)cnn2C)CC[C@H]1N [Example 269, 5-amino-N-(5-((2S,5R,6R)-5-amino-6-methoxyoxepan-2-yl)-1-methyl-1H-pyrazol-4-yl)-2-(2-fluoro-6-methylphenyl)thiazole-4-carboxamide]	0.052
Cn1ncc(NC(=O)c2csc(-c3ccccc3F)n2)c1[C@@H]1CC[C@@H](N)[C@@H](F)CO1 [Example 318, N-(5-((2S,5R,6R)-5-amino-6-fluorooxepan-2-yl)-1-methyl-1H-pyrazol-4-yl)-2-(2-fluorophenyl)thiazole-4-carboxamide]	0.098
Cn1ncc(NC(=O)c2csc(-c3cc(F)cc(F)c3F)n2)c1[C@@H]1CC[C@@H](N)[C@H](F)CO1 [Example 236, N-(5-((2S,5R,6S)-5-amino-6-fluorooxepan-2-yl)-1-methyl-1H-pyrazol-4-yl)-2-(2,3,5-trifluorophenyl)thiazole-4-carboxamide]	0.255
